Measured values: ChEMBL document CHEMBL1123652, “Optimization and in vivo evaluations of a series of small, potent, and specific renin inhibitors containing a novel Leu-Val replacement” (J Med Chem, 1987)

Target: T1, Cathepsin D (Bos taurus) (UniProt P80209)
T1 sequence (whole entry): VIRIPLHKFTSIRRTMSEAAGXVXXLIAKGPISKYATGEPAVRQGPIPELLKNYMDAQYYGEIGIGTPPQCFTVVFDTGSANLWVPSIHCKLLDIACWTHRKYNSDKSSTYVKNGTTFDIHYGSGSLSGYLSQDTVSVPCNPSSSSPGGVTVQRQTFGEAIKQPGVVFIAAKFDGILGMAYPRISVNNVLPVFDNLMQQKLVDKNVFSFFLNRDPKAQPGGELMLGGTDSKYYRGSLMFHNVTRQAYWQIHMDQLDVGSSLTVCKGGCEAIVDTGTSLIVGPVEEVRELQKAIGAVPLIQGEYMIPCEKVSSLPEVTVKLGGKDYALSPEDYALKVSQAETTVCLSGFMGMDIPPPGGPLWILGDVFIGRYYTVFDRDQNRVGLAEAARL
Test: Compound is evaluated for the percentage of inhibition of […] 10e-5 M concentration in, bovine cathepsin D

inhibition [%] | Structure (SMILES)
0 | CC(C)SC[C@H](O)[C@H](CC1CCCCC1)NC(=O)[C@H](Cc1c[nH]cn1)NC(=O)[C@H](Cc1ccccc1)NC(=O)OC(C)(C)C
0 | CC(C)(C)OC(=O)N[C@@H](Cc1ccccc1)C(=O)N[C@@H](Cc1c[nH]cn1)C(=O)N[C@@H](CC1CCCCC1)[C@@H](O)CSC1CCCCC1

Target: T2, Renin (Homo sapiens) (UniProt P00797)
T2 sequence (whole entry): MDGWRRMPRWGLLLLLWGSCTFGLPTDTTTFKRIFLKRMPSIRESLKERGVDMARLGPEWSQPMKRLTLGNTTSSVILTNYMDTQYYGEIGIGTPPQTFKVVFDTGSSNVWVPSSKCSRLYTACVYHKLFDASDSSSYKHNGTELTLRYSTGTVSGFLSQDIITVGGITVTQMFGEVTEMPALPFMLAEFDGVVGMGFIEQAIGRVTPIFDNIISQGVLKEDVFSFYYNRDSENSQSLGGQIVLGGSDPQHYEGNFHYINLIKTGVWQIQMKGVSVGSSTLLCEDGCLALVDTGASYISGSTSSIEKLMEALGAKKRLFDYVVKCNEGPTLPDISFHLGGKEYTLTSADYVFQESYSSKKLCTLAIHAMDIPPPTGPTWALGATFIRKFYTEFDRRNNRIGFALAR
Test: Evaluated in vitro for inhibitory potency against renin at 10e-5 M

inhibition [%] | Structure (SMILES)
5 | CC(C)(C)OC(=O)NC(Cc1c[nH]cn1)C(=O)N[C@@H](CC1CCCCC1)[C@@H](O)CS(=O)(=O)C1CCCCC1 (stereo not given in full)

Target: Pepsin A (Sus scrofa) (UniProt P00791)
Sequence (P00791 60-385 limits assumed): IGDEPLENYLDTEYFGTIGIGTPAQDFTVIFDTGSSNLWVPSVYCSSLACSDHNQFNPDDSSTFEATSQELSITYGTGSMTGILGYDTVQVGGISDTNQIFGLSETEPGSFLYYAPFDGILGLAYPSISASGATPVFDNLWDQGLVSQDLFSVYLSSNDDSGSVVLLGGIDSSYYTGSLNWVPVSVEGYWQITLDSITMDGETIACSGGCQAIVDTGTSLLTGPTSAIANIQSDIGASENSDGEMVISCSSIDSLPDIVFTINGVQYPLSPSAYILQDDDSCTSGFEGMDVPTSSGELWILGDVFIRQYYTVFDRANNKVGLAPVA
Test: Compound is evaluated for the percentage of inhibition of […] 10 e-5M concentration in porcine pepsin

inhibition [%] | Structure (SMILES)
0 | CC(C)SC[C@H](O)[C@H](CC1CCCCC1)NC(=O)[C@H](Cc1c[nH]cn1)NC(=O)[C@H](Cc1ccccc1)NC(=O)OC(C)(C)C
9 | CC(C)(C)OC(=O)N[C@@H](Cc1ccccc1)C(=O)N[C@@H](Cc1c[nH]cn1)C(=O)N[C@@H](CC1CCCCC1)[C@@H](O)CSC1CCCCC1

Target: T3, Renin (Homo sapiens, UniProt P00797)
T3 sequence (P00797 whole entry): T2 sequence (whole entry)
Test: Evaluated in vitro for inhibitory potency against renin.

IC50 [nM] | Structure (SMILES)
10 | CSC[C@H](O)[C@H](CC1CCCCC1)NC(=O)[C@H](Cc1c[nH]cn1)NC(=O)[C@H](Cc1ccccc1)NC(=O)OC(C)(C)C
100 | CC(C)(C)OC(=O)N[C@@H](Cc1ccccc1)C(=O)N[C@@H](Cc1c[nH]cn1)C(=O)N[C@@H](CC1CCCCC1)[C@H](O)CSC1CCCCC1
75 | CC(C)S(=O)(=O)C[C@H](O)[C@H](CC1CCCCC1)NC(=O)[C@H](Cc1c[nH]cn1)NC(=O)[C@H](COCc1ccccc1)NC(=O)OC(C)(C)C
3 | CC(C)S(=O)(=O)C[C@H](O)[C@H](CC1CCCCC1)NC(=O)[C@H](Cc1c[nH]cn1)NC(=O)[C@H](Cc1ccccc1)NC(=O)CC(C)(C)C [listing 1 of 2 here]
9.9 | CC(C)SC[C@H](O)[C@H](CC1CCCCC1)NC(=O)[C@H](C)NC(=O)[C@H](Cc1ccccc1)NC(=O)OC(C)(C)C
6 | CC(C)S(=O)(=O)C[C@H](O)[C@H](CC1CCCCC1)NC(=O)[C@@H](NC(=O)[C@H](Cc1ccccc1)NC(=O)OC(C)(C)C)[C@@H](C)OCc1ccccc1
300 | CC(=O)NCCCC[C@H](NC(=O)[C@H](Cc1ccccc1)NC(=O)OC(C)(C)C)C(=O)N[C@@H](CC1CCCCC1)[C@@H](O)CS(=O)(=O)C(C)C
3.5 | CC(C)S(=O)(=O)C[C@H](O)[C@H](CC1CCCCC1)NC(=O)[C@H](Cc1c[nH]cn1)NC(=O)[C@H](Cc1ccccc1)NC(=O)CC(C)(C)C [listing 2 of 2 here]
4 | CC(C)C[C@H](NC(=O)[C@H](Cc1ccccc1)NC(=O)OC(C)(C)C)C(=O)N[C@@H](CC1CCCCC1)[C@@H](O)CS(=O)(=O)C(C)C
300 | CC(C)S(=O)(=O)C[C@H](O)[C@H](CC1CCCCC1)NC(=O)[C@H](Cc1c[nH]cn1)NC(=O)[C@@H](N)[C@@H](C)OCc1ccccc1
150 | CC(C)S(=O)(=O)C[C@H](O)[C@H](CC1CCCCC1)NC(=O)C(Cc1c[nH]cn1)NC(=O)[C@@H](Cc1ccccc1)NC(=O)OC(C)(C)C (stereo not given in full)
20 | O=C(NC(Cc1cnc[nH]1)C(=O)N[C@@H](CC1CCCCC1)[C@@H](O)CSC1CCCCC1)C(Cc1ccccc1)Cc1ccccc1 (stereo not given in full)
70 | CC(C)S(=O)(=O)C[C@H](O)[C@H](CC1CCCCC1)NC(=O)C(Cc1cnc[nH]1)NC(=O)C(Cc1ccccc1)Cc1ccccc1 (stereo not given in full)
25 | CC(C)CC(NC(=O)C(Cc1ccccc1)Cc1ccccc1)C(=O)N[C@@H](CC1CCCCC1)[C@@H](O)CS(=O)(=O)C(C)C (stereo not given in full)
6.5 | CC(C)CSC[C@H](O)[C@H](CC1CCCCC1)NC(=O)[C@H](Cc1c[nH]cn1)NC(=O)[C@H](Cc1ccccc1)NC(=O)OC(C)(C)C
70 | CC(C)S(=O)(=O)C[C@H](O)[C@H](CC1CCCCC1)NC(=O)[C@H](C)NC(=O)[C@H](Cc1ccccc1)NC(=O)OC(C)(C)C
40 | CC(C)(C)OC(=O)N[C@@H](Cc1ccccc1)C(=O)N[C@@H](Cc1c[nH]cn1)C(=O)N[C@@H](CC1CCCCC1)[C@@H](O)CS(C)(=O)=O
4 | CC(C)SC[C@H](O)[C@H](CC1CCCCC1)NC(=O)[C@H](Cc1c[nH]cn1)NC(=O)[C@H](Cc1ccccc1)NC(=O)OC(C)(C)C
4 | CC(C)(C)OC(=O)N[C@@H](Cc1ccccc1)C(=O)N[C@@H](Cc1c[nH]cn1)C(=O)N[C@@H](CC1CCCCC1)[C@@H](O)CSC1CCCCC1

Target: Pepsin A (Sus scrofa) (UniProt P00791)
Test: Evaluated for the percentage of inhibition of porcine pepsin at E-5M concentration

inhibition [%] | Structure (SMILES)
18 | CC(C)S(=O)(=O)C[C@H](O)[C@H](CC1CCCCC1)NC(=O)[C@@H](NC(=O)[C@H](Cc1ccccc1)NC(=O)OC(C)(C)C)[C@@H](C)OCc1ccccc1
0 | CC(C)S(=O)(=O)C[C@H](O)[C@H](CC1CCCCC1)NC(=O)C(Cc1c[nH]cn1)NC(=O)[C@@H](Cc1ccccc1)NC(=O)OC(C)(C)C (stereo not given in full)
0 | CC(C)S(=O)(=O)C[C@H](O)[C@H](CC1CCCCC1)NC(=O)[C@H](C)NC(=O)[C@H](Cc1ccccc1)NC(=O)OC(C)(C)C

Target: T1, Cathepsin D (Bos taurus)
Test: Evaluated for the percentage of inhibition of bovine cathepsin D at E-5M concentration

inhibition [%] | Structure (SMILES)
95 | CC(C)S(=O)(=O)C[C@H](O)[C@H](CC1CCCCC1)NC(=O)[C@@H](NC(=O)[C@H](Cc1ccccc1)NC(=O)OC(C)(C)C)[C@@H](C)OCc1ccccc1
0 | CC(C)S(=O)(=O)C[C@H](O)[C@H](CC1CCCCC1)NC(=O)C(Cc1c[nH]cn1)NC(=O)[C@@H](Cc1ccccc1)NC(=O)OC(C)(C)C (stereo not given in full)
55 | CC(C)S(=O)(=O)C[C@H](O)[C@H](CC1CCCCC1)NC(=O)[C@H](C)NC(=O)[C@H](Cc1ccccc1)NC(=O)OC(C)(C)C
